The source made the active and inactive calls. No cut-off for these calls is given here.
How the values were obtained:
[1] = molecular target: Mitogen-activated protein kinase kinase kinase 2 (Homo sapiens) (UniProt Q9Y2U5); test: Inhibition of recombinant full-length human MEKK2 assessed as residual activity at 10 uM using myelin basic protein as substrate measured after 40 mins in presence of [gamma33P]ATP by scintillation counting method
[2] = molecular target: Mitogen-activated protein kinase kinase kinase 11 (Homo sapiens) (UniProt Q16584); test: Inhibition of human MLK3 assessed as residual activity at 10 uM by radiometric method
[3] = molecular target: Testis-specific serine/threonine-protein kinase 2 (Homo sapiens) (UniProt Q96PF2); test: Inhibition of recombinant full-length human TSSK2 assessed as residual activity at 10 uM using KKKVSRSGLYRSPSMPENLNRPR as substrate measured after 40 mins in presence of [gamma33P]ATP by scintillation counting method
Chain of Testis-specific serine/threonine-protein kinase 2 (Homo sapiens) (Q96PF2 whole entry): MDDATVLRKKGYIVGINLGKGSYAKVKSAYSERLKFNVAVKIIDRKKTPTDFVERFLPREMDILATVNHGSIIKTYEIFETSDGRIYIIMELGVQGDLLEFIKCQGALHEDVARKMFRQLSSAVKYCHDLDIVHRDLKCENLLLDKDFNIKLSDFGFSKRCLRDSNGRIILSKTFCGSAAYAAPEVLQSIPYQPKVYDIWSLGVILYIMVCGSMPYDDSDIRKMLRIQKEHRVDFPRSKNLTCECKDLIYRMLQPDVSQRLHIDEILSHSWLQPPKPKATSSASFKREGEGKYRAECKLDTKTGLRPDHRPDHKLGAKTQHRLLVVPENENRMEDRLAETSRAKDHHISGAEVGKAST

HCT-116 [4] = test: Induction of apoptosis in human HCT116 cells assessed as decrease in Bcl2 expression up to 200 nM measured after 48 hrs by Western blot analysis; assay type: functional, cell-based
HCT-116 [5] = test: Induction of apoptosis in human HCT116 cells assessed as late apoptotic cells at 50 nM measured after 48 hrs by Annexin V-FITC/propidium iodide staining-based flow cytometry (reference value: 3.87%); assay type: functional
HCT-116 [6] = test: Cell cycle arrest in human HCT116 cells assessed as up regulation of cdc25 expression up to 150 nM after 24 hrs by Western blot analysis; assay type: functional, cell-based
[7] = molecular target: Serine/threonine-protein kinase MRCK beta (Homo sapiens) (UniProt Q9Y5S2); test: Inhibition of recombinant human MRCKbeta (1 to 473 residues) assessed as residual activity at 10 uM using KKRNRTLTV as substrate measured after 40 mins in presence of [gamma33P]ATP by scintillation counting method
Chain of Serine/threonine-protein kinase MRCK beta (Homo sapiens) (Q9Y5S2 whole entry, the tested form may be a part): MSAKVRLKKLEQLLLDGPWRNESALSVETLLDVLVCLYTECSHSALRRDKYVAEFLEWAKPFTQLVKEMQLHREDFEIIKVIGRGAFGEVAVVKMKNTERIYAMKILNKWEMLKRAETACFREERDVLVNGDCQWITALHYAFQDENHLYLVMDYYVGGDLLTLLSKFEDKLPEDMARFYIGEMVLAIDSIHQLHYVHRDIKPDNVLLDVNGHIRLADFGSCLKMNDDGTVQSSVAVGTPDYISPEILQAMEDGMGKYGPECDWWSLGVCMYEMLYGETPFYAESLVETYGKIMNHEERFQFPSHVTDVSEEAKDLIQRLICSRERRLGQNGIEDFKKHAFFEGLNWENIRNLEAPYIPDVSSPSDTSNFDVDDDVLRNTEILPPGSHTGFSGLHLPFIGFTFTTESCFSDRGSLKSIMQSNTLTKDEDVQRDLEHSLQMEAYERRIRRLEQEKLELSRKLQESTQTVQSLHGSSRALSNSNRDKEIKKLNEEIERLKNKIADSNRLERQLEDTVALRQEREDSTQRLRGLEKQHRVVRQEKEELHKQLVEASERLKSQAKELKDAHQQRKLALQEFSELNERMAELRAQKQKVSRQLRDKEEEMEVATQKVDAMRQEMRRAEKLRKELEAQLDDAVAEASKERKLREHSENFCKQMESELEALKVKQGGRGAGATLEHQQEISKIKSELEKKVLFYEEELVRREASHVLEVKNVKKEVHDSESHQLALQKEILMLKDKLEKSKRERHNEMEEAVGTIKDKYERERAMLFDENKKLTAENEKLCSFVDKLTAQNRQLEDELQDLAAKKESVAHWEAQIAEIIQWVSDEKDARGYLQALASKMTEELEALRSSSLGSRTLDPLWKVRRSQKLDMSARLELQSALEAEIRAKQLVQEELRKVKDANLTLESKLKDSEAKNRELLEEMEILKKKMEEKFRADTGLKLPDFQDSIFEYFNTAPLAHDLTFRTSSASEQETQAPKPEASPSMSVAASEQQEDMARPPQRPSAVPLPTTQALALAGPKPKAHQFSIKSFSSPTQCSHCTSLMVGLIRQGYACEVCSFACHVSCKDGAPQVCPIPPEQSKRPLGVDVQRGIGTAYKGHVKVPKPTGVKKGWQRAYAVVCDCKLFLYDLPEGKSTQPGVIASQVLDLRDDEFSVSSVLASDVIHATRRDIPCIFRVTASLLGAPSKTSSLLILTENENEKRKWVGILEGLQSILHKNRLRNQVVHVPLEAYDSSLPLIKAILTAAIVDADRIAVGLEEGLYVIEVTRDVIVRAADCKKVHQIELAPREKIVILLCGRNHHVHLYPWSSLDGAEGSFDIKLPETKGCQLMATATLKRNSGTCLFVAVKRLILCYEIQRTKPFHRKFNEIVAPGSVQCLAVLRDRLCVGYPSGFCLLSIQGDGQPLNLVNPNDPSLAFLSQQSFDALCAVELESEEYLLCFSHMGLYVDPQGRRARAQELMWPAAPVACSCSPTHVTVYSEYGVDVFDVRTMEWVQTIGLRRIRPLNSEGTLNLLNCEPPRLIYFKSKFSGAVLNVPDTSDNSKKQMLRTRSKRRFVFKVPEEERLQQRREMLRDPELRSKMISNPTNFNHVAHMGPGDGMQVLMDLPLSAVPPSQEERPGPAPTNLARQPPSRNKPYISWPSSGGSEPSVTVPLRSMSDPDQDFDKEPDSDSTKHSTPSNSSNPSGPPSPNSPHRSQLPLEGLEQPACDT

[8] = Toxicity in nude BALB/c mouse assessed as change in total protein level at 40 to 80 mg/kg, po once daily for 4 weeks measured post-last dose; assay type: organism-based; details: in vivo, 672 h
[9] = molecular target: SRSF protein kinase 3 (Homo sapiens) (UniProt Q9UPE1); test: Inhibition of recombinant full-length human MSSK1 assessed as residual activity at 10 uM using ERMRPRKRQGSVRRRV as substrate measured after 40 mins in presence of [gamma33P]ATP by scintillation counting method
Chain of SRSF protein kinase 3 (Homo sapiens) (Q9UPE1 whole entry): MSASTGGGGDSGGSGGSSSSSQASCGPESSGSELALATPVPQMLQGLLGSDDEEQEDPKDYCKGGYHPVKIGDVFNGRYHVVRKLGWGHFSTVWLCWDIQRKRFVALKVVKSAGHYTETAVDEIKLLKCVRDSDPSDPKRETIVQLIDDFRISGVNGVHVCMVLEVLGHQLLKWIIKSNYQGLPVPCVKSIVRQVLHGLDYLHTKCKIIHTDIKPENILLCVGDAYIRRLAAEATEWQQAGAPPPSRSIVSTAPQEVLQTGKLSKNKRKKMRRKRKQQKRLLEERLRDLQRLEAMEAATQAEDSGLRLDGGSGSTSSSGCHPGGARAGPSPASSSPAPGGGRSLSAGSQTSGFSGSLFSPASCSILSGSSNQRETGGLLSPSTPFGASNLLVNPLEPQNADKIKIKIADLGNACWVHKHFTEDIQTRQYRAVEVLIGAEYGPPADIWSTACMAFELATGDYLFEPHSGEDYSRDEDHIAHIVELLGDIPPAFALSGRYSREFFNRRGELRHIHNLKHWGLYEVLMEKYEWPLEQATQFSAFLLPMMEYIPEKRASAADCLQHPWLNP

[10] = molecular target: Macrophage colony-stimulating factor 1 receptor (Homo sapiens) (UniProt P07333); test: Inhibition of recombinant human FMS (538 to end residues) assessed as residual activity at 10 uM using KKKSPGEYVNIEFG as substrate measured after 40 mins in presence of [gamma33P]ATP by scintillation counting method
HepG2 = test: cells; details: Homo sapiens, HepG2, 72 h
SW-620 [11] = test: Inhibition of colony formation in human SW620 cells at 50 nM after 14 days by crystal violet staining-based microscopic analysis; assay type: functional; details: SW-620, 336 h
[12] = tested on: Glycogen synthase kinase-3 beta (Homo sapiens), P49841 [UNDEFINED MUTATION]; test: Inhibition of recombinant human GSK3beta H350L mutant (2 to end residues) assessed as residual activity at 10 uM using phospho GS2 peptide as substrate measured after 40 mins in presence of [gamma33P]ATP by scintillation counting method
Chain of Glycogen synthase kinase-3 beta (Homo sapiens), P49841 [UNDEFINED MUTATION] (P49841 whole entry, looked up, stated change not applied): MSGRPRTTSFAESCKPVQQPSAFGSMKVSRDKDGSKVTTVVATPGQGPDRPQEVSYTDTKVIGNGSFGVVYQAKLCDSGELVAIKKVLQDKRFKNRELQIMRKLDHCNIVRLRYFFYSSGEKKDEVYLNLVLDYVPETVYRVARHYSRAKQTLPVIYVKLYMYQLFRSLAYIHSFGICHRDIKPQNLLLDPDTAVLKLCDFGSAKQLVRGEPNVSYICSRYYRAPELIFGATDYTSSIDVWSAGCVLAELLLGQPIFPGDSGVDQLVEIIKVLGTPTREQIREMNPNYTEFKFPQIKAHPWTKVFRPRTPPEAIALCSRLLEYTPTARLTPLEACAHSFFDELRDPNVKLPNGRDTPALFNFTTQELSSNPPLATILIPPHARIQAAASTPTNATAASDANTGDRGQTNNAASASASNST

[13] = molecular target: Inhibitor of nuclear factor kappa-B kinase subunit epsilon (Homo sapiens) (UniProt Q14164); test: Inhibition of recombinant full-length human IKKepsilon assessed as residual activity at 10 uM using casein as substrate measured after 40 mins in presence of [gamma33P]ATP by scintillation counting method
[14] = tested on: Dual specificity protein kinase TTK (Homo sapiens), P33981 [S389A]; test: Inhibition of recombinant full-length human TTK S389A mutant assessed as residual activity at 10 uM using MBP as substrate measured after 40 mins in presence of [gamma33P]ATP by scintillation counting method
[15] = molecular target: Serine/threonine-protein kinase tousled-like 1 (Homo sapiens) (UniProt Q9UKI8); test: Inhibition of recombinant full-length human TLK1 assessed as residual activity at 10 uM using casein as substrate measured after 40 mins in presence of [gamma33P]ATP by scintillation counting method
Chain of Serine/threonine-protein kinase tousled-like 1 (Homo sapiens) (Q9UKI8 whole entry): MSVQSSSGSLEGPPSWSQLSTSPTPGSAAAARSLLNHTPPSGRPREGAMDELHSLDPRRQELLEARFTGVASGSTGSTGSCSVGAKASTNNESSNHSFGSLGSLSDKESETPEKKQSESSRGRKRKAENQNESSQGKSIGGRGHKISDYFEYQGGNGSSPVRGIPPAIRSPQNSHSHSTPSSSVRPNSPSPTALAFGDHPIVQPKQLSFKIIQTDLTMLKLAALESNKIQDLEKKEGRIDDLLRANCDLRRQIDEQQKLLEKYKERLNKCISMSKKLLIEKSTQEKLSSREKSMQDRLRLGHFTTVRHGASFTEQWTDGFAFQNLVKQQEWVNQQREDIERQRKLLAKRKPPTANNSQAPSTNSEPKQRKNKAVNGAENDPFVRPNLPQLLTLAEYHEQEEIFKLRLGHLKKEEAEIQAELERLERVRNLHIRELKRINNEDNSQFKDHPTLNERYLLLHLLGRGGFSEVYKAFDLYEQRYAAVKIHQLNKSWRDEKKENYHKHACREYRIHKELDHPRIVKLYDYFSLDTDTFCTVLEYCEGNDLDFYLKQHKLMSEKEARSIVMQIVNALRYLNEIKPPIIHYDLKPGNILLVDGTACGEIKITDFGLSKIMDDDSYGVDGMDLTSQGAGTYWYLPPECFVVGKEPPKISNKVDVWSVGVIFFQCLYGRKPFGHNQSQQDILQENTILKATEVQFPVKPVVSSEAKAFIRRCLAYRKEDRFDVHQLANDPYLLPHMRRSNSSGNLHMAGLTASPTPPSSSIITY

Mus musculus = organism: Mus musculus; test: Inhibition of recombinant full-length mouse PI3K p110alpha/p85alpha assessed as residual activity at 10 uM using phosphatidylinositol-4, 5-bisphosphate as substrate measured after 40 mins by HTRF assay
[16] = molecular target: cAMP-dependent protein kinase catalytic subunit PRKX (Homo sapiens) (UniProt P51817); test: Inhibition of recombinant full-length human PrKX assessed as residual activity at 10 uM using RRRLSFAEPG as substrate measured after 40 mins in presence of [gamma33P]ATP by scintillation counting method
Chain of cAMP-dependent protein kinase catalytic subunit PRKX (Homo sapiens) (P51817 whole entry): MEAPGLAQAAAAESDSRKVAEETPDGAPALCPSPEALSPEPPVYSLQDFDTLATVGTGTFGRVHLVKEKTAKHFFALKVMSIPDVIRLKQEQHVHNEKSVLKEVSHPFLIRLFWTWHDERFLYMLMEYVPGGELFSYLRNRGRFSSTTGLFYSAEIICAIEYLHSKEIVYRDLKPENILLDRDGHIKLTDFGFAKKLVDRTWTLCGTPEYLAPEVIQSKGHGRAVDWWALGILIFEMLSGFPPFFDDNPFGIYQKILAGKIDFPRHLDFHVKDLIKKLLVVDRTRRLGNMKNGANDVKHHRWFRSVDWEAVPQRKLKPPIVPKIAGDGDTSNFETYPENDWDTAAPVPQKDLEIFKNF

[17] = molecular target: Serine/threonine-protein kinase B-raf (Homo sapiens) (UniProt P15056); test: Inhibition of recombinant human BRAF (416 to end residues) assessed as residual activity at 10 uM using myelin basic protein as substrate measured after 40 mins in presence of [gamma33P]ATP by scintillation counting method
[18] = molecular target: CDK12/Cyclin K (Homo sapiens) (UniProt O75909+Q9NYV4); test: Inhibition of recombinant full length human CDK12/cyclinK assessed as residual activity at 10 uM using RSRSRSRSRSRSRSR as substrate measured after 120 mins in presence of [gamma33P]ATP by scintillation counting method; assay type: protein-complex assay
[19] = molecular target: Cyclin-Y/Cyclin-dependent kinase 16 (Homo sapiens) (UniProt Q00536+Q8ND76); test: Inhibition of recombinant full length human CDK16/cyclinY assessed as residual activity at 10 uM using PKSPKARKKL as substrate measured after 120 mins in presence of [gamma33P]ATP by scintillation counting method; assay type: protein-complex assay
[20] = molecular target: Mitogen-activated protein kinase 11 (Homo sapiens) (UniProt Q15759); test: Inhibition of recombinant full-length human SAPK2b assessed as residual activity at 10 uM using myelin basic protein as substrate measured after 40 mins in presence of [gamma33P]ATP by scintillation counting method
[21] = molecular target: Serine/threonine-protein kinase PLK1 (Homo sapiens) (UniProt P53350); test: Inhibition of recombinant full-length human Plk1 assessed as residual activity at 10 uM using casein as substrate measured after 40 mins in presence of [gamma33P]ATP by scintillation counting method
[22] = molecular target: FKBP12A/mTOR (Homo sapiens) (UniProt P62942+P42345); test: Inhibition of recombinant full-length human mTOR/FKBP12 assessed as residual activity at 10 uM measured after 40 mins in presence of [gamma33P]ATP by scintillation counting method; assay type: protein-complex assay
Chain of FKBP12A/mTOR (Homo sapiens) (P62942 2-108 limits assumed, other chains not shown): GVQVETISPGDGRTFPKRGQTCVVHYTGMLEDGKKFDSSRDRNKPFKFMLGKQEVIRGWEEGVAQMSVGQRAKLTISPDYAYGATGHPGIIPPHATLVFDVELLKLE

[23] = molecular target: Protein kinase C iota type (Homo sapiens) (UniProt P41743); test: Inhibition of recombinant full-length human PKCiota assessed as residual activity at 10 uM using ERMRPRKRQGSVRRRV as substrate measured after 40 mins in presence of [gamma33P]ATP by scintillation counting method
SW-620 [24] = test: Induction of apoptosis in human SW620 cells assessed as late apoptotic cells at 100 nM measured after 48 hrs by Annexin V-FITC/propidium iodide staining-based flow cytometry (reference value: 1.8%); assay type: functional

Chain of Mitogen-activated protein kinase kinase kinase 2 (Homo sapiens) (Q9Y2U5 whole entry): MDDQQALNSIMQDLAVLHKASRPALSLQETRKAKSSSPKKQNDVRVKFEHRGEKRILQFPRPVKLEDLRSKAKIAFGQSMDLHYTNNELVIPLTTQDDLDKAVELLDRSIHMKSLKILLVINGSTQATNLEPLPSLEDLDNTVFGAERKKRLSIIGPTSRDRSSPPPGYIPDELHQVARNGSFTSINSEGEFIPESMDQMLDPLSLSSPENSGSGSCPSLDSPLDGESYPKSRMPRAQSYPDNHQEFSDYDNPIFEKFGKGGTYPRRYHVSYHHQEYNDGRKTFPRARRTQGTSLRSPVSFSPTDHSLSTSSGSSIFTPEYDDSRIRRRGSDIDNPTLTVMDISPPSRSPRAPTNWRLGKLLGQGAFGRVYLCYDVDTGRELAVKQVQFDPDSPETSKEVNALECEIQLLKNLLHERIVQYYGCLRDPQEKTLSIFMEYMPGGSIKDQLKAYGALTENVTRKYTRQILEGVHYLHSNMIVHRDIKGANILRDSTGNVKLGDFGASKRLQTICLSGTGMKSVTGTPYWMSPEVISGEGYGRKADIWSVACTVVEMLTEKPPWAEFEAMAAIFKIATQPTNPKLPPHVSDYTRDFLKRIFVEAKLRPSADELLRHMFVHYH

For `Cc1cc(C)c(CNc2nc(Cl)nc3c2ncn3C2CCCC2)c(=O)[nH]1`, the Activity [1] was 104%, the Activity [2] was 104% and the Activity [3] was 117%. The Activity (HCT-116 [4]) was “Active”, the Activity (HCT-116 [5]) was 46.2% and the Activity (HCT-116 [6]) was “Active”. The Activity [7] was 112%, the Activity [8] was “Non-Toxic” and the Activity [9] was 130%. It also gave an Activity [10] of 102%, an IC50 (HepG2) of 80 nM and an inhibition at 0.05 µM (SW-620 [11]) of 100%. It also gave an Activity [12] of 112%, an Activity [13] of 98.5% and an Activity [14] of 99.5%. For the same compound, the Activity [15] was 97%, the Activity (Mus musculus) was 99.5% and the Activity [16] was 113%. For the same compound, the Activity [17] was 122%, the Activity [18] was 104% and the Activity [19] was 123%. It also gave an Activity [20] of 100%, an Activity [21] of 112% and an Activity [22] of 96.5%. It also gave an Activity [23] of 105% and an Activity (SW-620 [24]) of 23.1%.

— ChEMBL document CHEMBL4311992, “Discovery of 3-(((9H-purin-6-yl)amino)methyl)-4,6-dimethylpyridin-2(1H)-one derivatives as novel tubulin polymerization inhibitors for treatment of cancer” (Eur J Med Chem, 2019)
